Experimental data taken from US8859018B2, “Delivery carrier for antimicrobial essential oils” (Nestec S.A., priority 2010, dated 2014).

Assays:
Assay in all cases: Challenge test with moulds in MOS / MAS; on Week 1 (Log cfu/g): key: VG: growth; NVG: no growth; on Week 2 (Log cfu/g): key: VG: growth; NVG: no growth; on Week 3 (Log cfu/g): key: VG: growth; NVG: no growth; on Week 4 (Log cfu/g): key: VG: growth; NVG: no growth
Type in all cases: cell-based
Details in all cases: for Week 0 (Log cfu/g) / Week 1 (Log cfu/g) / Week 2 (Log cfu/g) / Week 3 (Log cfu/g) / Week 4 (Log cfu/g): 0.10%; for mould growth: KS 0.10%
[1] = test system: Aspergillus niger (mould); on Week 1 (Log cfu/g): key: VG: growth; NVG: no growth; on Week 2 (Log cfu/g): key: VG: growth; NVG: no growth; on Week 3 (Log cfu/g): key: VG: growth; NVG: no growth; on Week 4 (Log cfu/g): key: VG: growth; NVG: no growth
Procedure: (§1) Target microorganisms used for the challenge tests (CT) were Zygosaccharomyces bailii (yeast), Aspergillus niger (mould), Penicillium nalgiovense (mould) and Eurotium amstelodami (mould).
(§2) Stock culture of the mould (mould spores suspended in Tryptone Salt 0.1% diluent) was revived on RBA plates by doing a 3-point inoculation. The inoculated RBA plates were incubated at 30° C. for 36 hours or until the colonies sporulated. The spores were then aseptically sub-cultured onto PDA plates for mass harvesting of the spores. The inoculated PDA plates were then incubated for 30° C. for 36 hours or until the colonies sporulated. Then, the spores were aseptically harvested with a sterile cotton swabs and suspended in sterile Tryptone Salt 0.1% diluent. The suspensions were analyzed for mould spore counts on DG18 plates as well as for microbial contamination on PCA with Cycloheximide by spread plating 0.1-0.5 ml of suspension onto the agar plates respectively. Before the challenge test is initiated, the suspension inoculated with the mould spores was diluted aseptically with sterile Tryptone Salt 0.1% to the desired level such that the inoculation level in the product would be 2-3 log of colony-forming-units (cfu) of moulds per gram of product.
(§3) Challenge Test with moulds was according to the following steps: 1) Add 100 g of MOS into a 250 ml sterile Schott bottle with screw-cap cover; 2) Add 0.1 to 2 ml of mould (A. niger/P. nalgiovence/E. amstelodami) inoculum to meet the target inoculum of 10^2-10^3 cfu/g of MOS into the 100 g MOS and shake to mix well; 3) Pour 35 g of the inoculated MOS into a petri dish. Perform this in duplicate; 4) Pipette 1 g of inoculated MOS from the Schott bottle into 9 ml sterile Tryptone Salt 0.1% diluents and vortex. Perform this in duplicate; 5) Plate 0.1-0.5 ml of inoculated Tryptone Salt 0.1% onto DG18 plates at appropriate dilutions by Spread Plate Method. Incubate the agar plates at 25° C. for 5 days to enumerate the initial mould count; 6) Incubate the inoculated MOS in petri dishes at 30° C. for a week. Monitor for mould growth by visual observation after one week. Perform this mould growth monitoring for a period of 4 weeks; 7) The control was prepared by repeating steps 3 to 6 without using any inoculum. The control was plated onto PCA with Cycloheximide plates.
(§4) The method for producing MAS was the same as for the MOS production in experiment 4. The preparation of the microorganism cultures as well as the challenge tests were identical to the ones described in experiment 4 as well.

[2] = test system: Eurotium amstelodami (mould); on Week 1 (Log cfu/g): key: VG: growth; NVG: no growth; on Week 2 (Log cfu/g): key: VG: growth; NVG: no growth; on Week 3 (Log cfu/g): key: VG: growth; NVG: no growth; on Week 4 (Log cfu/g): key: VG: growth; NVG: no growth
Procedure: as §1, §2, §3, §4

[3] = test system: Penicillium nalgiovense (mould); on Week 1 (Log cfu/g): key: VG: growth; NVG: no growth; on Week 2 (Log cfu/g): key: VG: growth; NVG: no growth; on Week 3 (Log cfu/g): key: VG: growth; NVG: no growth; on Week 4 (Log cfu/g): key: VG: growth; NVG: no growth
Procedure: as §1, §2, §3, §4

[4] = MAGGI Abalone Sauce, age 0 month
[5] = MAGGI Abalone Sauce, age 1 month
[6] = MAGGI Abalone Sauce, age 3 month
[7] = MAGGI Abalone Sauce, age 6 month
[8] = MAGGI Abalone Sauce, age 10 month
[9] = MAGGI Abalone Sauce, age 12 month
[10] = MAGGI Abalone Sauce, up to 12 months, clove leaf oil 0.06 wt % and 0.15 wt %
[11] = MAGGI Oyster Sauce, garlic EO 0.06 wt % and 0.12 wt %
[12] = MAGGI Oyster Sauce, age 0 month

C/C=C/C=C/C(=O)[O-].[K+] [KS, potassium sorbate]
Week 0 (Log cfu/g) [1, 4]: 1.9 Log cfu/g | Week 1 (Log cfu/g) [1, 4]: NVG | Week 2 (Log cfu/g) [1, 4]: NVG | Week 3 (Log cfu/g) [1, 4]: NVG | Week 4 (Log cfu/g) [1, 4]: NVG | Week 0 (Log cfu/g) [1, 5]: 1.15 Log cfu/g | Week 1 (Log cfu/g) [1, 5]: NVG | Week 2 (Log cfu/g) [1, 5]: NVG | Week 3 (Log cfu/g) [1, 5]: NVG | Week 4 (Log cfu/g) [1, 5]: NVG | Week 0 (Log cfu/g) [1, 6]: 2.19 Log cfu/g | Week 1 (Log cfu/g) [1, 6]: NVG | Week 2 (Log cfu/g) [1, 6]: NVG | Week 3 (Log cfu/g) [1, 6]: NVG | Week 4 (Log cfu/g) [1, 6]: NVG | Week 0 (Log cfu/g) [1, 7]: 2.16 Log cfu/g | Week 1 (Log cfu/g) [1, 7]: NVG | Week 2 (Log cfu/g) [1, 7]: NVG | Week 3 (Log cfu/g) [1, 7]: NVG | Week 4 (Log cfu/g) [1, 7]: NVG | Week 0 (Log cfu/g) [1, 8]: 3.67 Log cfu/g | Week 1 (Log cfu/g) [1, 8]: NVG | Week 2 (Log cfu/g) [1, 8]: NVG | Week 3 (Log cfu/g) [1, 8]: NVG | Week 4 (Log cfu/g) [1, 8]: NVG | Week 0 (Log cfu/g) [1, 9]: 2.96 Log cfu/g | Week 1 (Log cfu/g) [1, 9]: NVG | Week 2 (Log cfu/g) [1, 9]: NVG | Week 3 (Log cfu/g) [1, 9]: NVG | Week 4 (Log cfu/g) [1, 9]: NVG | mould growth [1, 10]: not detected | mould growth [1, 11]: not detected | Week 0 (Log cfu/g) [1, 12]: 3.114 Log cfu/g | Week 1 (Log cfu/g) [1, 12]: NVG | Week 2 (Log cfu/g) [1, 12]: NVG | Week 3 (Log cfu/g) [1, 12]: NVG | Week 4 (Log cfu/g) [1, 12]: NVG | Week 0 (Log cfu/g) [2, 4]: 2.93 Log cfu/g | Week 1 (Log cfu/g) [2, 4]: NVG | Week 2 (Log cfu/g) [2, 4]: NVG | Week 3 (Log cfu/g) [2, 4]: NVG | Week 4 (Log cfu/g) [2, 4]: NVG | Week 0 (Log cfu/g) [2, 5]: 1.54 Log cfu/g | Week 1 (Log cfu/g) [2, 5]: NVG | Week 2 (Log cfu/g) [2, 5]: NVG | Week 3 (Log cfu/g) [2, 5]: NVG | Week 4 (Log cfu/g) [2, 5]: NVG | Week 0 (Log cfu/g) [2, 6]: 2.69 Log cfu/g | Week 1 (Log cfu/g) [2, 6]: NVG | Week 2 (Log cfu/g) [2, 6]: NVG | Week 3 (Log cfu/g) [2, 6]: NVG | Week 4 (Log cfu/g) [2, 6]: NVG | Week 0 (Log cfu/g) [2, 7]: 2.67 Log cfu/g | Week 1 (Log cfu/g) [2, 7]: NVG | Week 2 (Log cfu/g) [2, 7]: NVG | Week 3 (Log cfu/g) [2, 7]: NVG | Week 4 (Log cfu/g) [2, 7]: NVG | Week 0 (Log cfu/g) [2, 8]: 3.80 Log cfu/g | Week 1 (Log cfu/g) [2, 8]: NVG | Week 2 (Log cfu/g) [2, 8]: NVG | Week 3 (Log cfu/g) [2, 8]: NVG | Week 4 (Log cfu/g) [2, 8]: NVG | Week 0 (Log cfu/g) [2, 9]: 2.38 Log cfu/g | Week 1 (Log cfu/g) [2, 9]: NVG | Week 2 (Log cfu/g) [2, 9]: NVG | Week 3 (Log cfu/g) [2, 9]: NVG | Week 4 (Log cfu/g) [2, 9]: NVG | mould growth [2, 10]: not detected | mould growth [2, 11]: not detected | Week 0 (Log cfu/g) [2, 12]: 2.204 Log cfu/g | Week 1 (Log cfu/g) [2, 12]: NVG | Week 2 (Log cfu/g) [2, 12]: NVG | Week 3 (Log cfu/g) [2, 12]: NVG | Week 4 (Log cfu/g) [2, 12]: NVG | Week 0 (Log cfu/g) [3, 4]: 1.54 Log cfu/g | Week 1 (Log cfu/g) [3, 4]: NVG | Week 2 (Log cfu/g) [3, 4]: NVG | Week 3 (Log cfu/g) [3, 4]: NVG | Week 4 (Log cfu/g) [3, 4]: NVG | Week 0 (Log cfu/g) [3, 5]: 1.73 Log cfu/g | Week 1 (Log cfu/g) [3, 5]: NVG | Week 2 (Log cfu/g) [3, 5]: NVG | Week 3 (Log cfu/g) [3, 5]: NVG | Week 4 (Log cfu/g) [3, 5]: NVG | Week 0 (Log cfu/g) [3, 6]: 2.71 Log cfu/g | Week 1 (Log cfu/g) [3, 6]: NVG | Week 2 (Log cfu/g) [3, 6]: NVG | Week 3 (Log cfu/g) [3, 6]: NVG | Week 4 (Log cfu/g) [3, 6]: NVG | Week 0 (Log cfu/g) [3, 7]: 2.03 Log cfu/g | Week 1 (Log cfu/g) [3, 7]: NVG | Week 2 (Log cfu/g) [3, 7]: NVG | Week 3 (Log cfu/g) [3, 7]: NVG | Week 4 (Log cfu/g) [3, 7]: NVG | Week 0 (Log cfu/g) [3, 8]: 3.86 Log cfu/g | Week 1 (Log cfu/g) [3, 8]: NVG | Week 2 (Log cfu/g) [3, 8]: NVG | Week 3 (Log cfu/g) [3, 8]: NVG | Week 4 (Log cfu/g) [3, 8]: NVG | Week 0 (Log cfu/g) [3, 9]: 3.26 Log cfu/g | Week 1 (Log cfu/g) [3, 9]: NVG | Week 2 (Log cfu/g) [3, 9]: NVG | Week 3 (Log cfu/g) [3, 9]: NVG | Week 4 (Log cfu/g) [3, 9]: NVG | mould growth [3, 10]: not detected | mould growth [3, 11]: not detected | Week 0 (Log cfu/g) [3, 12]: 4.079 Log cfu/g | Week 1 (Log cfu/g) [3, 12]: NVG | Week 2 (Log cfu/g) [3, 12]: NVG | Week 3 (Log cfu/g) [3, 12]: NVG | Week 4 (Log cfu/g) [3, 12]: NVG
